Where two headings read alike, the source gives them in different places.

One data set can be described thus: CAD aqueous solubility. Here is the method:
(§1) To understand cellular target engagement, 21 was tested in an LPS-stimulated hWB assay measuring inhibition of the inflammatory mediator MCP-1 secretion.
ChromatographicLogD at pH 7.4, artificial membrane permeability, CLND solubility, and CAD solubility were measured using published protocols.[55]

The next data set relates to MCP-1. As to the kind of experiment: LPS-stimulated human whole blood (hWB) MCP-1 release assay. The note with it: LPS-stimulated human whole blood; read-out: hWB MCP-1 pIC50 (converted). The data set is classed as cell-based.
From the text: The utility of a chemical probe in target validation is directly related to its quality, with important publications detailing requirements to aid researchers.[36]−[38] […] It was accepted that selectivity would be judged initially through a mutant BRD4 TR-FRET assay and would likely shift depending on the protein construct and assay format. […] Previous studies have shown that BET BD1 inhibition is sufficient to inhibit in vitro production of MCP-1 in LPS-stimulated hWB and, as such, served as a relevant measure of cellular target engagement and, concomitantly, proof of cellular permeability.[12],[39] Selectivity over other human bromodomains outside of the BET family, known collectively as non-BET bromodomains, was also required,[40] with a ≥ 100-fold selectivity window targeted. To ensure the molecules remained within developable chemical space, a target property forecast index (PFI) as defined by chromLogDpH7.4 + number of aromatic rings ≤6 was set.[41]
as §1
(§2) All TR-FRET and hWB cytokine assays have been described previously.[54]

For the next data set, the system named is BRD4 BD2. As to the kind of experiment: BRD4 BD2 TR-FRET assay. Format: binding, human. Here is the method:
(§3) As a strategic decision, every compound synthesized across all of GSK’s bromodomain research projects was tested in both a BRD4 BD1 and a BRD4 BD2 TR-FRET assay as part of tier 1 data generation. […] LipE is a straightforward, yet powerful metric for medicinal chemistry teams to normalize potency relative to lipophilicity, a critical factor both for parameters of the human dose equation and also for promiscuity.[43],[44] To aid interpretation, diagonal lines representing different LipE values are shown, with the most desirable space found toward the top left-hand area of the plot representing molecules with the comparatively highest potency per unit of lipophilicity.
as §2

Data set [1] is described as follows: Chromatographic LogD at pH 7.4.
In data set [2] the test system is BRD4 BD1. The data set is classed as binding, human. The note with it: TR-FRET. The method, then:
as §3, §2
On the technique in general: TR-FRET usually uses a lanthanide donor and a delayed reading to cut background.

In a further data set the test system is BET BD2. Particulars: cited from earlier work.
Data set [3] is described as follows: CLND kinetic aqueous solubility.
Data set [4] deals with BRD4 BD1. Particulars: literature compound, no reference given; cited from earlier work.
The next data set relates to BET BD1. The note with it: cited from earlier work.

The term solubility denotes how much of the substance goes into solution per volume. A high value points to a readily soluble substance. By pKa is commonly meant the pH at which an ionisable group is half protonated. A high value points to a weaker acid or stronger base. For orientation: chromatographic logD means lipophilicity estimated from chromatographic retention. The low end stands for lower lipophilicity, the high end for higher lipophilicity. In turn, `Cc1cc(-c2nc3ccccc3n2C[C@@H]2CCCN(C(=O)C3CCN(CCF)CC3)C2)cn(C)c1=O` [Compound 34, (S)-5-(1-((1-(1-(2-Fluoroethyl)piperidine-4-carbonyl)piperidin-3-yl)methyl)-1H-benzo[d]imidazole-2-yl)-1,3-dimethylpyridin-2(1H)-one] gave a solubility in the data set “CAD aqueous solubility” of at least 0.207 mg/mL. Further, the IC50 in the data set with MCP-1 was 0.0631 µM. In addition, the “BRD4 BD2 FRET pIC50” value in the data set with BRD4 BD2 worked out at 4.7. In the data set “pKa of the basic amine”, this compound came in with a pKa of 7.3. The chromatographic logD in data set [1] (pH 7.4) is 2.5. In addition, in the data set on BRD4 BD1 [2], the “BRD4 BD1 FRET pIC50” value worked out at 7.6 and the “fold selectivity (BRD4 BD1 over BRD4 BD2)” value (from here on “fold selectivity”) is listed as 794 fold.
Take `CCNC(=O)c1cc2c(-c3cc(C(C)(C)O)ccc3Oc3c(C)cc(F)cc3C)cn(C)c(=O)c2[nH]1` [ABBV-744]: in the data set on BET BD2, the “BD2 selectivity over BET BD1” value is 330 fold.
Consider `CC(=O)N1CCC[C@@H](Cn2c(-c3cc(C)c(=O)n(C)c3)nc3ccccc32)C1` [(S)-12, (S)-5-(1-((1-Acetylpiperidin-3-yl)methyl)-1H-benzo[d]imidazole-2-yl)-1,3-dimethylpyridin-2(1H)-one], for which the solubility in data set [3] (aqueous) is at least 0.247 mg/mL. The “BRD4 BD2 FRET pIC50” value in the data set on BRD4 BD2 came to 6.2. For the same compound, in data set [1] (chromLogDpH7.4 + number of aromatic rings), the “PFI (property forecast index)” value was 5.2. The compound further returned a chromatographic logD in data set [1] (pH 7.4) of 2.2. In the data set on BRD4 BD1 [2], the “BRD4 BD1 FRET pIC50” value worked out at 8.0 and the “fold selectivity” value was 63 fold. Besides, the IC50 in the data set on BRD4 BD1 [2] (read-out: BRD4 BD1 potency (IC50)) was determined as 0.01 µM.
`COc1ccccc1S(=O)(=O)Nc1ccc2c3c(cc(-n4cnc(C)c4)nc13)C(=O)N2C` [LT052]: in the data set on BRD4 BD1 [4], the IC50 is 0.088 µM and the “selectivity for BRD4 BD1 over BRD4 BD2” value is listed as 138 fold.
For `Cc1cc(-c2nc3ccccc3n2CC2CCOCC2)cn(C)c1=O` [Compound 13], in data set [3] (aqueous), the solubility was at least 0.142 mg/mL. The “BRD4 BD2 FRET pIC50” value in the data set with BRD4 BD2 turned out to be 6.4. Further, in data set [1] (pH 7.4), the chromLogDpH7.4 was 2.7. Moreover, in the data set on BRD4 BD1 [2], the “BRD4 BD1 FRET pIC50” value is given as 7.2 and the “fold selectivity” value is on record as 6 fold.
On to `Cc1cc(-c2nc3ccccc3n2C[C@@H]2CCCN(C(=O)C3CCN(CC(F)F)CC3)C2)cn(C)c1=O` [Compound 35, (S)-5-(1-((1-(1-(2,2-Difluoroethyl)piperidine-4-carbonyl)piperidin-3-yl)methyl)-1H-benzo[d]imidazole-2-yl)-1,3-dimethylpyridin-2(1H)-one], for which the solubility in “CAD aqueous solubility” was at least 0.279 mg/mL. Further, in the data set on MCP-1, the IC50 is 0.631 µM. Also, the “BRD4 BD2 FRET pIC50” value in the data set on BRD4 BD2 is listed as 4.7. For the same compound, the pKa in “pKa of the basic amine” stood at 4.2. The compound further came in with a chromatographic logD in [1] (pH 7.4) of 3.2. Also, in the data set with BRD4 BD1 [2], the “BRD4 BD1 FRET pIC50” value amounted to 6.7 and the “fold selectivity” value turned out to be 100 fold.
For `COc1cc(OC)c2c(=O)[nH]c(-c3cc(C)c(OCCO)c(C)c3)nc2c1` [Apabetalone/RVX-208], the “BD2 selectivity over BET BD1” value with BET BD2 was 10 fold.
On to `CC(=O)N1CCC[C@@H](Cn2c(-c3cc(C)c(=O)n(C)c3)nc3cc(Br)ccc32)C1` [Compound 14, (S)-5-(1-((1-Acetylpiperidin-3-yl)methyl)-5-bromo-1H-benzo[d]imidazole-2-yl)-1,3-dimethylpyridin-2(1H)-one], for which the solubility in [3] was at least 0.25 mg/mL. Besides, the “BRD4 BD2 FRET pIC50” value with BRD4 BD2 is 6.3 ± 0.01 (2). In addition, the chromatographic logD in data set [1] (pH 7.4) amounted to 3.3. In the data set with BRD4 BD1 [2], the “BRD4 BD1 FRET pIC50” value was 8.0 ± 0.06 (2) and the “fold selectivity” value came to 50 fold.
Compound `CC(=O)N1CCC[C@H](Cn2c(-c3cc(C)c(=O)n(C)c3)nc3ccccc32)C1` [(R)-12, (R)-5-(1-((1-Acetylpiperidin-3-yl)methyl)-1H-benzo[d]imidazole-2-yl)-1,3-dimethylpyridin-2(1H)-one] had a solubility in data set [3] (aqueous) of at least 0.169 mg/mL. Also, the “BRD4 BD2 FRET pIC50” value in the data set on BRD4 BD2 was found to be 6.3. The same compound returned a chromatographic logD in data set [1] (pH 7.4) of 2.3. In the data set on BRD4 BD1 [2], the “BRD4 BD1 FRET pIC50” value was 7.5 and the “fold selectivity” value was determined as 16 fold.
As to `COCc1nc2cnc3cc(-c4c(C)noc4C)c(OC[C@H]4CCNC4)cc3c2n1[C@H](C)c1ccccc1` [GSK778], in the data set with BET BD1, the IC50 is below 0.1 µM and the “selectivity for BET BD1 over BET BD2” value is 30–140 fold.
